Laboratory results as given in US20250034099A1, “BENZOXAZINONE DERIVATIVES” (CHIA TAI TIANQING PHARMACEUTICAL GROUP CO., LTD., priority 2021, published 2025).
Read-outs that look alike come from different tables or passages of the source.

Experiments:
[1] = biological target: T1, MR (Homo sapiens, UniProt P08235); experiment: In vitro evaluation of MR antagonistic activity (HEK293/Gal4/MR cell line, Bright Glo); type: cell-based; conditions: HEK293/Gal4/MR cells, aldosterone final 1 nmol, 24 h incubation
T1 sequence (P08235 726-984 limits assumed): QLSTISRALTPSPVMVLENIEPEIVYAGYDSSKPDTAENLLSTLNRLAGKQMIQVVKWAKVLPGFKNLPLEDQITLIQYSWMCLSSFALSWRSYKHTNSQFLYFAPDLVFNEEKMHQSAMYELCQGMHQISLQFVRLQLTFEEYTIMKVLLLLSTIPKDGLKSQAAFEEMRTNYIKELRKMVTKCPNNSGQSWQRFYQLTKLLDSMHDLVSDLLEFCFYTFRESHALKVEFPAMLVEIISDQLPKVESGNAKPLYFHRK
Method: Purpose of Experiment: to assay the MR antagonistic activity of the compounds
A DMEM medium purchased from BI; fetal bovine serum purchased from Biosera; an HEK293/Gal4/MR cell line provided by Wuhan Heyan Biomedical Technology Co., Ltd.; Bright Glo purchased from Promega; and an EnVision multi-marker analyzer (PerkinElmer).
MR cells were seeded in a white 96-well plate, with […] of cell suspension containing 40000 cells added to each well. The cell plate was incubated in a CO2 incubator overnight.
The compounds to be tested were serially 5-fold diluted to the 8th concentration point with a multi-channel pipette, and the compound concentration ranged from 2 mmol to […]. 38 μL of the medium was added to an intermediate plate, and the compound was added to corresponding wells of the intermediate plate at 2 μL/well. After well mixing, the compound solution was transferred to the cell plate at 10 μL/well, and the cell plate was incubated in a CO2 incubator for 1 h. Aldosterone was diluted to 10 nmol with a medium, i.e., 20 μL of aldosterone with a concentration of 1 μmol was added to 1980 μL of the medium. After well mixing, 10 μL of the aldosterone solution was added to each well of the cell plate except the positive control wells. The cell plate was incubated in a CO2 incubator for 24 h. The final concentration of the compound ranged from 10 μmol to 0.128 nmol, and the final concentration of aldosterone was 1 nmol. After the incubation was completed, the cell supernatant was discarded, and the Bright Glo reagent was added to the cell plate at 100 μL/well. Readings were taken immediately on the EnVision multi-marker analyzer.
The original data were converted to inhibition rates using the following equation: % inhibition=((RFUcmpd−AVER(RFUNeg.Ctrl))/((AVER(RFUPos.Ctrl)−AVER(RFUNeg.Ctrl))×100%. Compound curves were fitted by log(inhibitor) vs. response-Variable slope of Graphpad Prism 5. IC50 values were calculated by the software using the following formula: Y=Bottom+(Top−Bottom)/(1+10^((Log IC50−X)×HillSlope)).

[2] = Pharmacokinetic evaluation in rats after IV and PO administration; type: in vivo; conditions: rat, plasma, male SD rats; for bioavailability / clearance / Vd: IV (1 mg/kg); for bioavailability: read-out: Bioavailability F (%); for clearance: read-out: Clearance CL; for Vd: read-out: Tissue distribution Vdss; for AUC(0-t): read-out: Area under plasma concentration-time curve AUC0-last PO; for Cmax: read-out: Peak concentration Cmax
Method: SD rats (male, 7-9 weeks old, Beijing Vital River Laboratory Animal Technology Co., Ltd.)
Pharmacokinetic characteristics of the compounds after intravenous injection (IV) and oral administration (PO) in rodents were tested by a standard scheme. The rats were subjected to intravenous injection and oral administration once in the experiment. […]. The vehicle for the intravenous injection was a clear solution of 80% polyethylene glycol 400/20% water, and the vehicle for the oral administration was a homogeneous suspension of 99.9% (0.5% HPMC:Solutol HS15=95:5)/0.1% Tween 80. Four male SD rats were used in this project. Two rats were subjected to intravenous injection, and plasma samples were collected at 0 h (before administration) and 0.083, 0.25, 0.5, 1, 2, 4, 8 and 24 h (after administration); the other two rats were subjected to oral intragastric administration, and plasma samples were collected at 0 h (before administration) and 0.25, 0.5, 1, 2, 4, 8, and 24 h (after administration). Whole blood samples within 24 h were collected. All blood samples were immediately transferred to labeled commercial centrifuge tubes containing K2-EDTA. After blood sample collection, the plasma supernatant was taken by centrifugation at 3200 g at 4° C. for 10 min, immediately placed in dry ice, and then stored at −60° C. or a lower temperature for LC-MS/MS analysis. Plasma concentration-time data were analyzed by a non-compartmental model using a WinNonlin software package (Version 6.3 and above), and pharmacokinetic parameters such as peak concentration (Cmax), clearance (CL), tissue distribution (Vdss), area under plasma concentration-time curve (AUC0-last), bioavailability (F) and the like were calculated.

[3] = tested on: nuclear receptor; conditions: background statement; cited from earlier work

| IC50 [1] [nM] | Structure (SMILES) | other results |
| --- | --- | --- |
| 130 | CNC(=O)CC1COc2cc(F)cc(F)c2N1Cc1cc(C)c2c(c1)NC(=O)CO2 (single isomer, unassigned) [Compound 8a] |  |
| 251 | Cc1noc(CC2COc3cc(F)ccc3N2C(C)c2ccc3c(c2)NC(=O)CO3)n1 (single isomer, unassigned) [Compound 35a] |  |
| 76.6 | Cc1noc(CC2COc3cc(F)ccc3N2C(C)c2ccc3c(c2)NC(=O)CO3)n1 (single isomer, unassigned) [Compound 35b] |  |
| 29.1 | Cc1c(CN2c3c(F)cc(F)cc3OCC2CC(N)=O)ccc2c1NC(=O)CO2 (single isomer, unassigned) [Compound 42a] | bioavailability ([2]; PO (10 mg/kg)): 34.6%; clearance [2]: 24.4 mL/min/kg; Vd [2]: 1.57 L/kg; AUC(0-t) ([2]; PO (10 mg/kg)): 5.93 µM·h; Cmax ([2]; PO (10 mg/kg)): 2.74 µM |
| 18 | NC(=O)CC1COc2cc(F)cc(F)c2N1Cc1ccc2c(c1Cl)NC(=O)CO2 (single isomer, unassigned) [Compound 43a] |  |
| 289 | CNC(=O)CC1COc2cc(F)ccc2N1Cc1cc(Cl)c2c(c1)NC(=O)CO2 (stereo not shown) [Compound 4] |  |
| 325 | CNC(=O)CC1COc2cc(F)cc(F)c2N1Cc1ccc2c(c1)NC(=O)CO2 (stereo not shown) [Compound 5] |  |
| 273 | CNC(=O)CC1COc2cc(F)ccc2N1C(C)c1ccc2c(c1)NC(=O)CO2 (stereo not shown) [Compound 6] |  |
| 519 | CS(=O)(=O)CC1COc2cc(F)ccc2N1Cc1ccc2c(c1)NC(=O)CO2 (stereo not shown) [Compound 7] |  |
| 403 | CCNC(=O)C[C@H]1COc2cc(F)ccc2N1Cc1ccc2c(c1)NC(=O)CO2 [Compound 9] |  |
| 15 | Cc1noc(C[C@H]2COc3cc(F)ccc3N2Cc2cc(Cl)c3c(c2)NC(=O)CO3)n1 [Compound 10] |  |
| 27 | Cc1noc(C[C@H]2COc3cc(F)ccc3N2Cc2ccc3c(c2)NC(=O)CO3)n1 [Compound 12] |  |
| 78 | Cc1nnn(C[C@H]2COc3cc(F)ccc3N2Cc2ccc3c(c2)NC(=O)CO3)n1 [Compound 14] |  |
| 107 | O=C1COc2ccc(CN3c4ccc(F)cc4OC[C@@H]3Cc3nc(CO)no3)cc2N1 [Compound 15] |  |
| 62 | Cc1noc(C[C@H]2COc3cc(F)ccc3N2Cc2cc(F)c3c(c2)NC(=O)CO3)n1 [Compound 18] |  |
| 66 | Cc1noc(C[C@H]2COc3cc(F)ccc3N2Cc2cc3c(cc2F)OCC(=O)N3)n1 [Compound 19] |  |
| 27 | O=C1COc2cc(F)c(CN3c4ccc(F)cc4OC[C@@H]3Cn3nccn3)cc2N1 [Compound 20] |  |

| IC50 [1] [nM] | Structure (SMILES) | other results |
| --- | --- | --- |
| 50 | O=C1COc2ccc(CN3c4ccc(F)cc4OC[C@@H]3Cn3nccn3)cc2N1 [Compound 21] |  |
| 9 | Cc1noc(C[C@H]2COc3cc(F)ccc3N2Cc2ccc3c(c2F)NC(=O)CO3)n1 [Compound 22] |  |
| 29 | [2H]C([2H])(c1ccc2c(c1)NC(=O)CO2)N1c2ccc(F)cc2OC[C@@H]1Cc1nc(C)no1 [Compound 23] |  |
| 32 | Cc1nnn(C[C@H]2COc3cc(F)ccc3N2Cc2cc3c(cc2F)OCC(=O)N3)n1 [Compound 24] |  |
| 72 | Cc1nc(C[C@H]2COc3cc(F)ccc3N2Cc2cc(Cl)c3c(c2)NC(=O)CO3)no1 [Compound 25] |  |
| 32 | Cn1nnc(C[C@H]2COc3cc(F)ccc3N2Cc2cc(Cl)c3c(c2)NC(=O)CO3)n1 [Compound 26] |  |
| 80 | Cn1nnc(C[C@H]2COc3cc(F)ccc3N2Cc2ccc3c(c2)NC(=O)CO3)n1 [Compound 27] |  |
| 35 | [2H]C([2H])([2H])c1noc(C[C@H]2COc3cc(F)ccc3N2Cc2ccc3c(c2)NC(=O)CO3)n1 [Compound 28] |  |
| 22 | [2H]C([2H])([2H])c1noc(C[C@H]2COc3cc(F)ccc3N2Cc2cc3c(cc2F)OCC(=O)N3)n1 [Compound 29] |  |
| 68 | Cn1nnc(C[C@H]2COc3cc(F)ccc3N2Cc2cc3c(cc2F)OCC(=O)N3)n1 [Compound 30] |  |
| 50.8 | O=C1COc2ccc(CN3c4ccc(F)cc4OC[C@@H]3Cc3c[nH]nn3)c(F)c2N1 [Compound 32] |  |
| 11 | Cn1nnc(C[C@H]2COc3cc(F)ccc3N2Cc2ccc3c(c2F)NC(=O)CO3)n1 [Compound 33] |  |
| 130 | [2H]C([2H])([2H])n1nnc(C[C@H]2COc3cc(F)ccc3N2Cc2ccc3c(c2)NC(=O)CO3)n1 [Compound 34] |  |
| 13.7 | Cc1noc(C[C@H]2COc3cc(F)ccc3N2Cc2ccc3c(c2C)NC(=O)CO3)n1 [Compound 36] | bioavailability ([2]; PO (100 mg/kg)): 64.9%; clearance [2]: 82.6 mL/min/kg; Vd [2]: 6.96 L/kg; AUC(0-t) ([2]; PO (100 mg/kg)): 29.9 µM·h; Cmax ([2]; PO (100 mg/kg)): 5.62 µM |
| 43.9 | Cc1c(CN2c3ccc(F)cc3OC[C@@H]2Cc2nnn(C)n2)ccc2c1NC(=O)CO2 [Compound 37] | bioavailability ([2]; PO (100 mg/kg)): 142%; clearance [2]: 47.9 mL/min/kg; Vd [2]: 4.75 L/kg; AUC(0-t) ([2]; PO (100 mg/kg)): 116 µM·h; Cmax ([2]; PO (100 mg/kg)): 18.9 µM |
| 22.6 | Cn1nnc(C[C@H]2COc3cc(F)ccc3N2Cc2ccc3c(c2Cl)NC(=O)CO3)n1 [Compound 38] |  |
|  | CC(=O)S[C@@H]1CC2=CC(=O)CC[C@]2(C)[C@H]2CC[C@@]3(C)[C@@H](CC[C@@]34CCC(=O)O4)[C@H]12 [spironolactone] | nuclear receptor selectivity [3]: poor |
